In patent US20120094964A1, “SULFAMOYL BENZOIC ACID DERIVATIVES AS TRPM8 ANTAGONISTS” (priority 2009, published 2012):

Target: T1, human TRPM8 (Homo sapiens, UniProt Q7Z2W7)
T1 construct: expressed in transfected cells
Experiment: In Vitro human TRPM8 Functional Assay (intracellular Ca2+, Fluo4, FDSS, menthol activation)
Type: cell-based
Conditions: HEK293 cells stably expressing human TRPM8; activation with L-(-)-Menthol; 11-point dose-response
Protocol: In Vitro human TRPM8 Functional Assay
The functional activity of compounds was determined by measuring changes in intracellular calcium concentration using a Ca^2+-sensitive fluorescent dye, Fluo4 (Molecular Probes). The changes in fluorescent signal were monitored by the cell imaging technology by Hamamatsu Photonics's Functional Drug Screening System (FDSS).
HEK293 cells stably expressing human TRPM8 were grown in T175 flasks, in a 5% CO2 humidified incubator to about 80% confluence. Media composition consisted of Dulbecco's Modified Eagle Medium (high glucose), 10% fetal calf serum (FCS), 100 units/ml Penicillin, 100 microg/ml Streptomycin and 600 microg/ml Geneticine.
1. Plate-out HEK293-TRPM8 cells (40 microL medium containing 30,000 cells per well) into poly-D-lysine coated 384-well plates (BD FALCON) at 24 hours prior to assay.
1. […] 2. […] 3. Place the plate at room temperature in dark for 1 hour. 4. […] 5. Add 20 microL of compound solutions into each well and leave the plate for 5 minutes under the dark at room temperature. 6. Measure activity by FDSS as follows: • Set the assay plate on the stacker of FDSS • Start the detection of fluorescence intensity • After 30 sec, add 20 microL of 90 microM L-(−)-Menthol
IC50 values for compounds of the present invention were determined from 11-point dose-response studies. Curves were generated using the average of duplicate wells for each data point. Finally, the IC50 values are calculated with the best-fit dose curve determined by XLfit (ID Business Solutions Ltd.).

T1 sequence (Q7Z2W7 whole entry): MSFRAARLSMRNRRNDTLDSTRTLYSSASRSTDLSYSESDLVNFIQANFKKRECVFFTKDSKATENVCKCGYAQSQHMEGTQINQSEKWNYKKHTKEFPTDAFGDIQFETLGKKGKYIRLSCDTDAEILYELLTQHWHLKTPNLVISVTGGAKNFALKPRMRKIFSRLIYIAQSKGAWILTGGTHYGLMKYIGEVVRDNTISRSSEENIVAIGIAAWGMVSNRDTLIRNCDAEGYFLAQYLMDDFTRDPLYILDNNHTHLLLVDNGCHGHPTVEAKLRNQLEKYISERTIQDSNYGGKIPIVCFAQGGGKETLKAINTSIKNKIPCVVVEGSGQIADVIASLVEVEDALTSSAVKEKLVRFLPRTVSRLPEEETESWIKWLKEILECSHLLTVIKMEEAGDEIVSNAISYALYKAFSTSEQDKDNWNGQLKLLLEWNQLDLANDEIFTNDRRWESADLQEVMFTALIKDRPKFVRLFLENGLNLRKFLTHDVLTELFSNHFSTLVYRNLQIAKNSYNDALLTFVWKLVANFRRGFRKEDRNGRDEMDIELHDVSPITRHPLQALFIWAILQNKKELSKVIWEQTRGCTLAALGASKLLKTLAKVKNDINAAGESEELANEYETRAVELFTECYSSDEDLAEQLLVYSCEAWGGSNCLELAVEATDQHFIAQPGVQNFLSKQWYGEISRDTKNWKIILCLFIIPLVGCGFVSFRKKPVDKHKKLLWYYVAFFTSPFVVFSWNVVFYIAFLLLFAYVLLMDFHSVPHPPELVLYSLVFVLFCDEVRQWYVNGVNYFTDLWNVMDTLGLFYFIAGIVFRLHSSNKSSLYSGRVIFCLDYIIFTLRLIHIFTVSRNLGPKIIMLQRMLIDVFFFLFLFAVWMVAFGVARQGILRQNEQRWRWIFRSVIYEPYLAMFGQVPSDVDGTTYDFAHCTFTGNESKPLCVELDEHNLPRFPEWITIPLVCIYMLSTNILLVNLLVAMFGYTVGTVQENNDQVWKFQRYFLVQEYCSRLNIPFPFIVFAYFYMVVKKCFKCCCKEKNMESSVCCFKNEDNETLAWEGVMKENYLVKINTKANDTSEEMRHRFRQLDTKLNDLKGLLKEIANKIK

Compound | IC50 [nM]
O=C(O)c1ccc(S(=O)(=O)N(Cc2ccccc2)c2ncccc2C(F)(F)F)cc1 [Example 2, 4-(N-Benzyl-N-(3-(trifluoromethyl)pyridin-2-yl)sulfamoyl)benzoic acid] | 10000 to 30000
O=S(=O)(Nc1cccc(C(F)(F)F)c1)c1ccccc1 [Example 4, N-(3-(Trifluoromethyl)phenyl)benzenesulfonamide] | 10000 to 30000
O=C(CN(c1cccc(C(F)(F)F)c1)S(=O)(=O)c1ccccc1)N1CCCCC1 [Example 6, N-(2-oxo-2-(piperidin-1-yl)ethyl)-N-(3-(trifluoromethyl)phenyl)benzenesulfonamide] | 10000 to 30000
O=C(CN(c1cccc(C(F)(F)F)c1)S(=O)(=O)c1ccccc1)NCc1ccccc1 [Example 7, N-Benzyl-2-(N-(3-(trifluoromethyl)phenyl)benzenesulfonamido)acetamide] | 10000 to 30000
O=C(CN(c1cccc(C(F)(F)F)c1)S(=O)(=O)c1ccccc1)Nc1ccccc1 [Example 8, N-Phenyl-2-(N-(3-(trifluoromethyl)phenyl)benzenesulfonamido)acetamide] | 1000 to 10000
O=C(O)c1ccc(S(=O)(=O)N(Cc2ccccc2)c2cc(C(F)(F)F)ccn2)cc1 [Example 21, 4-(N-Benzyl-N-(4-(trifluoromethyl)pyridin-2-yl)sulfamoyl)benzoic acid] | 1000 to 10000
O=C(O)c1ccc(S(=O)(=O)N(Cc2ccccc2)c2cccc(C(F)(F)F)n2)cc1 [Example 22, 4-(N-Benzyl-N-(6-(trifluoromethyl)pyridin-2-yl)sulfamoyl)benzoic acid] | 1000 to 10000
O=C(O)c1ccc(S(=O)(=O)N(CC2CC2)c2ncc(C(F)(F)F)cc2Cl)cc1 [Example 29, 4-(N-(3-Chloro-5-(trifluoromethyl)pyridin-2-yl)-N-(cyclopropylmethyl)sulfamoyl)benzoic acid] | 1000 to 10000
Cc1cccnc1N(Cc1ccccc1)S(=O)(=O)c1ccc(C(=O)O)cc1 [Example 34, 4-(N-Benzyl-N-(3-methylpyridin-2-yl)sulfamoyl)benzoic acid] | 1000 to 10000
O=C(O)c1ccc(S(=O)(=O)N(Cc2ccccc2)c2ncccc2Cl)cc1 [Example 37, 4-(N-Benzyl-N-(3-chloropyridin-2-yl)sulfamoyl)benzoic acid] | 1000 to 10000
O=C(O)c1ccc(S(=O)(=O)N(Cc2ccc(F)cc2Cl)c2ncc(C(F)(F)F)cc2Cl)cc1 [Example 40, 4-(N-(2-Chloro-4-fluorobenzyl)-N-(3-chloro-5-(trifluoromethyl)pyridin-2-yl)sulfamoyl)benzoic acid] | < 1000
O=C(O)c1ccc(S(=O)(=O)N(Cc2ccc(OCC(F)(F)F)cc2)c2ncc(C(F)(F)F)cc2Cl)cc1 [Example 41] | < 1000
O=C(O)c1ccc(S(=O)(=O)N(Cc2cc(F)cc(F)c2)c2ncc(C(F)(F)F)cc2Cl)cc1 [Example 42, 4-(N-(3-Chloro-5-(trifluoromethyl)pyridin-2-yl)-N-(3,5-difluorobenzyl)sulfamoyl)benzoic acid] | < 1000
O=C(O)c1ccc(S(=O)(=O)N(Cc2c(F)cccc2F)c2ncc(C(F)(F)F)cc2Cl)cc1 [Example 44, 4-(N-(3-Chloro-5-(trifluoromethyl)pyridin-2-yl)-N-(2,6-difluorobenzyl)sulfamoyl)benzoic acid] | < 1000
O=C(O)c1ccc(S(=O)(=O)N(Cc2ccc(F)c(F)c2)c2ncc(C(F)(F)F)cc2Cl)cc1 [Example 45, 4-(N-(3-Chloro-5-(trifluoromethyl)pyridin-2-yl)-N-(3,4-difluorobenzyl)sulfamoyl)benzoic acid] | < 1000
O=C(O)c1ccc(S(=O)(=O)N(Cc2cc(F)ccc2F)c2ncc(C(F)(F)F)cc2Cl)cc1 [Example 46, 4-(N-(3-Chloro-5-(trifluoromethyl)pyridin-2-yl)-N-(2,5-difluorobenzyl)sulfamoyl)benzoic acid] | < 1000
O=C(O)c1ccc(S(=O)(=O)N(Cc2ccc(Cl)c(Cl)c2)c2ncc(C(F)(F)F)cc2Cl)cc1 [Example 47, 4-(N-(3-Chloro-5-(trifluoromethyl)pyridin-2-yl)-N-(3,4-dichlorobenzyl)sulfamoyl)benzoic acid] | < 1000
O=C(O)c1ccc(S(=O)(=O)N(Cc2cccc(Cl)c2)c2ncc(C(F)(F)F)cc2Cl)cc1 [Example 48, 4-(N-(3-Chloro-5-(trifluoromethyl)pyridin-2-yl)-N-(3-chlorobenzyl)sulfamoyl)benzoic acid] | < 1000

Results, then the molecule that gave them:

IC50 [nM] | Compound
< 1000 | O=C(O)c1ccc(S(=O)(=O)N(Cc2ccccc2)c2ncc(C(F)(F)F)cc2Cl)cc1 [Example 1, 4-(N-Benzyl-N-(3-chloro-5-(trifluoromethyl)pyridin-2-yl)sulfamoyl)benzoic acid]
< 1000 | CN1CCN(C(=O)CN(c2cccc(C(F)(F)F)c2)S(=O)(=O)c2ccccc2)CC1 [Example 5, N-(2-(4-Methylpiperazin-1-yl)-2-oxoethyl)-N-(3-(trifluoromethyl)phenyl)benzenesulfonamide]
< 1000 | O=S(=O)(c1ccc(CO)cc1)N(Cc1ccccc1)c1ncc(C(F)(F)F)cc1Cl [Example 9, N-Benzyl-N-(3-chloro-5-(trifluoromethyl)pyridin-2-yl)-4-(hydroxymethyl)benzene-1-sulfonamide]
< 1000 | CN(C)C(=O)c1ccc(S(=O)(=O)N(Cc2ccccc2)c2ncc(C(F)(F)F)cc2Cl)cc1 [Example 12, 4-(Benzyl(3-chloro-5-(trifluoromethyl)pyridin-2-yl)sulfamoyl)-N,N-dimethylbenzamide]
< 1000 | O=C(O)c1ccc(S(=O)(=O)N(Cc2ccc(OC(F)(F)F)cc2)c2ncc(C(F)(F)F)cc2Cl)cc1 [Example 15, 4-(N-(3-Chloro-5-(trifluoromethyl)pyridin-2-yl)-N-(4-(trifluoromethoxy)benzyl)sulfamoyl)benzoic acid]
< 1000 | COc1ccc(CN(c2ncc(C(F)(F)F)cc2Cl)S(=O)(=O)c2ccc(C(=O)O)cc2)cc1 [Example 16, 4-(N-(3-Chloro-5-(trifluoromethyl)pyridin-2-yl)-N-(4-methoxybenzyl)sulfamoyl)benzoic acid]
< 1000 | O=C(O)c1ccc(S(=O)(=O)N(CCC2CCCCC2)c2ncc(C(F)(F)F)cc2Cl)cc1 [Example 19, 4-(N-(3-Chloro-5-(trifluoromethyl)pyridin-2-yl)-N-(2-cyclohexylethyl)sulfamoyl)benzoic acid]
< 1000 | O=C(O)c1ccc(S(=O)(=O)N(Cc2ccccc2F)c2ncc(C(F)(F)F)cc2Cl)cc1 [Example 20, 4-(N-(3-Chloro-5-(trifluoromethyl)pyridin-2-yl)-N-(2-fluorobenzyl)sulfamoyl)benzoic acid]
< 1000 | O=C(O)c1ccc(S(=O)(=O)N(Cc2cccc(C(F)(F)F)c2)c2ncc(C(F)(F)F)cc2Cl)cc1 [Example 23, 4-(N-(3-Chloro-5-(trifluoromethyl)pyridin-2-yl)-N-(3-(trifluoromethyl)benzyl)sulfamoyl)benzoic acid]
< 1000 | COc1cccc(CN(c2ncc(C(F)(F)F)cc2Cl)S(=O)(=O)c2ccc(C(=O)O)cc2)c1 [Example 24, 4-(N-(3-Chloro-5-(trifluoromethyl)pyridin-2-yl)-N-(3-methoxybenzyl)sulfamoyl)benzoic acid]
< 1000 | O=C(O)c1ccc(S(=O)(=O)N(Cc2ccc(F)cc2F)c2ncc(C(F)(F)F)cc2Cl)cc1 [Example 26, 4-(N-(3-Chloro-5-(trifluoromethyl)pyridin-2-yl)-N-(2,4-difluorobenzyl)sulfamoyl)benzoic acid]
< 1000 | Cc1ccc(CN(c2ncc(C(F)(F)F)cc2Cl)S(=O)(=O)c2ccc(C(=O)O)cc2)cc1 [Example 27, 4-(N-(3-Chloro-5-(trifluoromethyl)pyridin-2-yl)-N-(4-methylbenzyl)sulfamoyl)benzoic acid]
< 1000 | CC(C)c1ccc(CN(c2ncc(C(F)(F)F)cc2Cl)S(=O)(=O)c2ccc(C(=O)O)cc2)cc1 [Example 28, 4-(N-(3-Chloro-5-(trifluoromethyl)pyridin-2-yl)-N-(4-isopropylbenzyl)sulfamoyl)benzoic acid]
< 1000 | O=C(O)c1ccc(S(=O)(=O)N(CCOc2ccc(F)cc2)c2ncc(C(F)(F)F)cc2Cl)cc1 [Example 30, 4-(N-(3-Chloro-5-(trifluoromethyl)pyridin-2-yl)-N-(2-(4-fluorophenoxy)ethyl)sulfamoyl)benzoic acid]
< 1000 | O=C(O)c1ccc(S(=O)(=O)N(Cc2ccc(Cl)cc2)c2ncc(C(F)(F)F)cc2Cl)cc1 [Example 32, 4-(N-(3-Chloro-5-(trifluoromethyl)pyridin-2-yl)-N-(4-chlorobenzyl)sulfamoyl)benzoic acid]
< 1000 | N#Cc1ccc(CN(c2ncc(C(F)(F)F)cc2Cl)S(=O)(=O)c2ccc(C(=O)O)cc2)cc1 [Example 33, 4-(N-(3-Chloro-5-(trifluoromethyl)pyridin-2-yl)-N-(4-cyanobenzyl)sulfamoyl)benzoic acid]
< 1000 | Cc1cc(Cl)cnc1N(Cc1ccccc1)S(=O)(=O)c1ccc(C(=O)O)cc1 [Example 38, 4-(N-Benzyl-N-(5-chloro-3-methylpyridin-2-yl)sulfamoyl)benzoic acid]
